Counter-ions that a name gives are not always drawn. Like-named read-outs stand apart in the source and are kept apart here. Where only a bound is given, the exact number is not on record here.

The source of these data is PMC6792352, “Limited Chemical Structural Diversity Found to Modulate Thyroid Hormone Receptor in the Tox21 Chemical Library” (Environmental Health Perspectives, 2019).

The subject of series [1] is GH3-TRE-Luc cell line. The following applies: read-out: AC50 (uM) modified / 1000, viability, 1 nM T3 present, 24 h.
Series [2] can be described thus: in vitro. The following applies: rat, gh3-tre-luc cells, AC50 (uM) modified / 1000.

For `Oc1ccc(Cl)cc1Sc1cc(Cl)ccc1O` [Fenticlor], the CC50 in series [1] (Tox21_110001=Tox21_110031) was found to be 11.6 µM. In series [2], this compound gave a CC50 at 24 h of 8.49 µM.
For `O=[N+]([O-])c1ccc(Nc2ccccc2)cc1` [4-Nitro-N-phenylaniline], the CC50 in series [1] (Tox21_110001=Tox21_303333) is 76.1 µM. Further, in series [2], the CC50 at 24 h is 45.4 µM.
As to `CCc1cccc(CC)c1N(COC)C(=O)CCl` [Alachlor], the CC50 in series [1] (Tox21_110001=Tox21_300713) is 78.7 µM. In addition, in series [2], the CC50 at 24 h is greater than 90 µM.
As for `CCOC(=O)C1=C[C@]2(CC)CCCN3CCc4c(n1c1ccccc41)[C@@H]32` [Vinpocetine], the CC50 in series [1] (Tox21_110001=Tox21_110839) was determined as 12 µM. Further, the CC50 at 24 h in series [2] was 22.7 µM.
For the compound `Oc1cccc(-c2c3nc(c(-c4cccc(O)c4)c4ccc([nH]4)c(-c4cccc(O)c4)c4nc(c(-c5cccc(O)c5)c5ccc2[nH]5)CC4)C=C3)c1` [Temoporfin], the CC50 in series [1] (Tox21_110001=Tox21_113297) was 11.2 µM. In series [2], this compound had a CC50 at 24 h of 13.6 µM.
As to `O=c1n(CC2CO2)c(=O)n(CC2CO2)c(=O)n1CC1CO1` (stereo not shown) [Triglycidyl isocyanurate], the CC50 is 26.2 µM in series [1] (Tox21_110001=Tox21_111097) and 33.9 µM in series [1] (Tox21_110001=Tox21_300119). Further, in series [2], the CC50 at 24 h came out at 27.2 µM.
Turning to `CC(C)(C)CC(C)(C)c1ccc(O)c(-n2nc3ccccc3n2)c1` [Octrizole], the CC50 in series [1] (Tox21_110001=Tox21_112086) was found to be 21.6 µM; in series [1] (Tox21_110001=Tox21_300498), 32.7 µM. Also, the CC50 at 24 h in series [2] was determined as 35.4 µM.
As for `Oc1ccc2cc(SSc3ccc4cc(O)ccc4c3)ccc2c1` [6-Hydroxy-2-naphthyl disulfide], the CC50 in series [1] (Tox21_110001=Tox21_303354) came to 81.2 µM. The CC50 at 24 h in series [2] is greater than 90 µM.
Consider `O=C(O[C@@H]1Cc2c(O)cc(O)cc2O[C@@H]1c1cc(O)c(O)c(O)c1)c1cc(O)c(O)c(O)c1` [(-)-Epigallocatechin gallate], for which the CC50 in series [1] (Tox21_110001=Tox21_303457) was 50.7 µM. The compound further registered a CC50 at 24 h in series [2] of 48.4 µM.
As for `CCCCCCCCCCCCCC[P+](CCCC)(CCCC)CCCC` [Tributyltetradecylphosphonium chloride], the CC50 in series [1] (Tox21_110001=Tox21_303556) is 3.3 µM. Further, the CC50 at 24 h in series [2] worked out at 2.96 µM.
Regarding `CC(C)CC(C)(c1ccc(O)cc1)c1ccc(O)cc1` [4,4'-(4-Methylpentane-2,2-diyl)diphenol], the CC50 in series [1] (Tox21_110001=Tox21_303608) came out at 34 µM. Besides, in series [2], the CC50 at 24 h worked out at 41.6 µM.
In the case of `CCCN(CCC)c1c([N+](=O)[O-])cc(C(F)(F)F)cc1[N+](=O)[O-]` [Trifluralin], the CC50 in series [1] (Tox21_110001=Tox21_300918) was 62.5 µM. In addition, the CC50 at 24 h in series [2] is greater than 90 µM.
`Clc1ccc(C(c2ccccc2Cl)C(Cl)(Cl)Cl)cc1` (stereo not shown) [o,p'-DDT]: in series [1] (Tox21_110001=Tox21_300622), the CC50 was found to be 39.9 µM. Further, the CC50 at 24 h in series [2] worked out at 34 µM.
As for `Oc1ccc(/C=C/c2cc(O)cc(O)c2)cc1` [Resveratrol], in series [1] (Tox21_110001=Tox21_303376), the CC50 worked out at 36.1 µM. Besides, the CC50 at 24 h in series [2] was 35 µM.
As for `Oc1ccc(Cl)cc1Cc1cc(Cl)ccc1O` [Dichlorophen], the CC50 was determined as 15.4 µM in series [1] (Tox21_110001=Tox21_111112) and 27.4 µM in series [1] (Tox21_110001=Tox21_303013). This compound also gave a CC50 at 24 h in series [2] of 16.7 µM.
`CCNc1nc(NC(C)(C)C)nc(SC)n1` [Terbutryn]: in series [1] (Tox21_110001=Tox21_303141), the CC50 amounted to 74.8 µM. The compound also gave a CC50 at 24 h in series [2] greater than 90 µM.
As to `c1ccc(Nc2cccc3ccccc23)cc1` [N-Phenyl-1-naphthylamine], the CC50 in series [1] (Tox21_110001=Tox21_303075) is 61.1 µM. Moreover, the CC50 at 24 h in series [2] came out at 64.9 µM.
Regarding `c1ccc2sc(SSN3CCOCC3)nc2c1` [2-(Morpholin-4-yldithio)-1,3-benzothiazole], the CC50 in series [1] (Tox21_110001=Tox21_303278) was 35 µM. Further, the CC50 at 24 h in series [2] was found to be 18.6 µM.
Turning to `O=c1c(O)c(-c2ccc(O)cc2)oc2cc(O)cc(O)c12` [Kaempferol], the CC50 in series [1] (Tox21_110001=Tox21_303363) stood at 50 µM. In series [2], this compound came in with a CC50 at 24 h of 66.6 µM.
Regarding `OCCN1CCN(CCCN2c3ccccc3C=Cc3ccccc32)CC1` [Opipramol dihydrochloride], in series [1] (Tox21_110001=Tox21_113153), the CC50 was 8.37 µM. The compound also displayed a CC50 at 24 h in series [2] of 6.78 µM.
On to `CC(CCc1ccccc1)NCC(O)c1ccc(O)c(C(N)=O)c1` (stereo not shown) [Labetalol hydrochloride], for which the CC50 in series [1] (Tox21_110001=Tox21_302725) was determined as 24.7 µM. The CC50 at 24 h in series [2] was 14.1 µM.
Turning to `CCCCCCCCCCCCCCCC[N+](C)(C)Cc1ccccc1` [Benzylhexadecyldimethylammonium chloride], in series [1] (Tox21_110001=Tox21_112574), the CC50 was determined as 13.4 µM. In addition, the CC50 at 24 h in series [2] is 21.5 µM.
For the compound `CN(C)CCOc1ccc(/C(=C(/CCCl)c2ccccc2)c2ccccc2)cc1` [Toremifene citrate], the CC50 in series [1] (Tox21_110001=Tox21_111877) came to 11.4 µM. Also, the CC50 at 24 h in series [2] was determined as 8.87 µM.
As for `Clc1ccc(C(c2ccccc2Cl)C(Cl)Cl)cc1` (stereo not shown) [o,p'-DDD], the CC50 in series [1] (Tox21_110001=Tox21_110103) turned out to be 41.9 µM. In series [2], this compound showed a CC50 at 24 h of 56.7 µM.
In the case of `Nc1ccc(Cl)cc1N` [4-Chloro-1,2-diaminobenzene], the CC50 in series [1] (Tox21_110001=Tox21_400037) was greater than 90 µM. This compound also returned a CC50 at 24 h in series [2] of 73 µM.
In the case of `CCCCCCCCOC(=O)c1ccc(O)cc1` [Octylparaben], the CC50 in series [1] (Tox21_110001=Tox21_303430) was determined as 46 µM. This compound gave a CC50 at 24 h in series [2] of 60.4 µM.
`ClC(Cl)=C(c1ccc(Cl)cc1)c1ccc(Cl)cc1` [p,p'-DDE]: the CC50 in series [1] (Tox21_110001=Tox21_300109) stood at 63.5 µM. For the same compound, in series [2], the CC50 at 24 h turned out to be 48.6 µM.
In the case of `Cc1ccc(O)c(C(C)(C)C)c1` [2-tert-Butyl-4-methylphenol], the CC50 in series [1] (Tox21_110001=Tox21_303003) is 69.9 µM. The same compound registered a CC50 at 24 h in series [2] of 89.6 µM.
For the compound `CC(C)(C)C(O)(CCc1ccc(Cl)cc1)Cn1cncn1` (stereo not shown) [Tebuconazole], the CC50 in series [1] (Tox21_110001=Tox21_300487) was determined as 57.7 µM. Also, the CC50 at 24 h in series [2] is 64.3 µM.
As for `CCCCN(CC)c1c([N+](=O)[O-])cc(C(F)(F)F)cc1[N+](=O)[O-]` [Benfluralin], in series [1] (Tox21_110001=Tox21_300774), the CC50 amounted to 46 µM. For the same compound, the CC50 at 24 h in series [2] was greater than 90 µM.
For the compound `COC(=O)C1=C(C)NC(C)=C(C(=O)OCC(C)C)C1c1ccccc1[N+](=O)[O-]` (stereo not shown) [Nisoldipine], in series [1] (Tox21_110001=Tox21_112251), the CC50 turned out to be 37.2 µM. In series [2], the CC50 at 24 h amounted to 51.4 µM.
Take `CCCCCCCCCCCC[N+](C)(C)CCOc1ccccc1` [Domiphen bromide]: the CC50 in series [1] (Tox21_110001=Tox21_111054) was 12.4 µM. In series [2], this compound displayed a CC50 at 24 h of 10.6 µM.
With `CC(C)N(C(=O)CCl)c1ccccc1` [Propachlor], the CC50 in series [1] (Tox21_110001=Tox21_303036) was found to be 54.1 µM. The CC50 at 24 h in series [2] worked out at 48.7 µM.
On to `c1cc(OCC2CO2)ccc1Cc1ccc(OCC2CO2)cc1` (stereo not shown) [Bis[4-(glycidyloxy)phenyl]methane], for which, in series [1] (Tox21_110001=Tox21_303420), the CC50 is 48.6 µM. Moreover, the CC50 at 24 h in series [2] is 42.4 µM.
Consider `O=Nc1ccc(Nc2ccccc2)cc1` [4-Nitrosodiphenylamine], for which the CC50 in series [1] (Tox21_110001=Tox21_302822) stood at 14.9 µM. The CC50 at 24 h in series [2] amounted to 8.75 µM.
